Results on one compound are retold here after PMC8708985, “Regulation of D-Aspartate Oxidase Gene Expression by Pyruvate Metabolism in the Yeast Cryptococcus humicola” (Microorganisms, 2021).

In this assay the target is T1, ChDDO (Vanrija humicola, UniProt Q75WF1).
T1 construct: gene DDO; native enzyme in crude extract of D-Asp-induced strain UJ1 cells; FAD added
Briefly: HRP-coupled phenol/4-aminoantipyrine H2O2 assay at […] nm, crude extract. The class given is biochemical. Particulars: 20 mM D-Asp; 20 uM FAD; 50 mM potassium phosphate pH 8.0.

T1 sequence (Q75WF1 whole entry): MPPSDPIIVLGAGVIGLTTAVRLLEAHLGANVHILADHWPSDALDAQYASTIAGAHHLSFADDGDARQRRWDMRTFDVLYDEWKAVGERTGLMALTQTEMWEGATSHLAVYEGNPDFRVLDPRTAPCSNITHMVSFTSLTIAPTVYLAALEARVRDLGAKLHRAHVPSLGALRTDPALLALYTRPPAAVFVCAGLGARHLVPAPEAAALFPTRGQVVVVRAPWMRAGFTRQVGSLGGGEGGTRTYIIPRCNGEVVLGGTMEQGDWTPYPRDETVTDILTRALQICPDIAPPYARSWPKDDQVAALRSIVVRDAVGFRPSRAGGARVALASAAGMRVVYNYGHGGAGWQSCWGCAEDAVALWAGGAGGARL

For `N[C@H](CC(=O)O)C(=O)O` [D-Asp], the “HRP-coupled phenol/4-aminoantipyrine H2O2 assay at 505 nm, crude extract” value is on record as “the enzyme activity in the crude extract of the ΔChpyc1 strain induced by D-Asp”.
